Measured values reported in PubChem BioAssay AID330 (DTP/NCI, 2004).
Values joined by “and” are separate entries in the source; they are usually repeats but may differ in a detail not shown here. Identical values can stand only once. Inconclusive results and toxic doses are left out. Peptide text beside a SMILES is read from it. * marks the point of attachment. Cbz = O=C(OCc1ccccc1)*; OBn = c1ccc(CO*)cc1

System: P388 leukemia ip, CD2F1 mice, survival T/C
Experiment: NCI In Vivo Anticancer Drug Screen. Data for tumor model P388 Leukemia (intraperitoneal) in CD2F1 (CDF1) mice
Settings: endpoint: median survival time, higher = longer survival
Outline: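 Mice carrying the transplanted tumor received test compound or vehicle. Survival was recorded in each group, and the value is the treated-group measurement divided by that of the vehicle-treated control group.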

[1] = dose: 50.0 mg/kg/injection, schedule: Q01DX005 (ip), vehicle: Klucel (hydroxypropylcellulose) (HPC)
[2] = dose: 100.0 mg/kg/injection, schedule: Q01DX005 (ip), vehicle: Klucel (hydroxypropylcellulose) (HPC)
[3] = dose: 50.0 mg/kg/injection, schedule: Q01DX009 (ip), vehicle: saline with Tween-80
[4] = dose: 100.0 mg/kg/injection, schedule: Q01DX009 (ip), vehicle: saline with Tween-80
[5] = dose: 200.0 mg/kg/injection, schedule: Q01DX009 (ip), vehicle: saline with Tween-80
[6] = dose: 100.0 mg/kg/injection, schedule: Q04DX003 (ip), vehicle: saline
[7] = dose: 200.0 mg/kg/injection, schedule: Q04DX003 (ip), vehicle: saline
[8] = dose: 60.0 mg/kg/injection, schedule: Q01DX005 (ip), vehicle: saline with Tween-80
[9] = dose: 120.0 mg/kg/injection, schedule: Q01DX005 (ip), vehicle: saline with Tween-80
[10] = dose: 240.0 mg/kg/injection, schedule: Q01DX005 (ip), vehicle: saline with Tween-80
[11] = dose: 50.0 mg/kg/injection, schedule: Q01DX005 (ip), vehicle: saline with Tween-80
[12] = dose: 100.0 mg/kg/injection, schedule: Q01DX005 (ip), vehicle: saline with Tween-80
[13] = dose: 6.25 mg/kg/injection, schedule: Q01DX009 (ip), vehicle: saline with Tween-80
[14] = dose: 12.5 mg/kg/injection, schedule: Q01DX009 (ip), vehicle: saline with Tween-80
[15] = dose: 200.0 mg/kg/injection, schedule: Q01DX005 (ip), vehicle: saline with Tween-80

SMILES: COc1cc(CC2C(=O)OCC2C(=O)c2ccc3c(c2)OCO3)cc(OC)c1OC (stereo not given)
- T/C (dose: 12.5 mg/kg/injection, schedule: Q01DX005 (ip), vehicle: Klucel (hydroxypropylcellulose) (HPC)): 102 % of control
- T/C (dose: 25.0 mg/kg/injection, schedule: Q01DX005 (ip), vehicle: Klucel (hydroxypropylcellulose) (HPC)): 102 % of control
- T/C [1]: 91 % of control and 93 % of control
- T/C [2]: 98 % of control
- T/C (dose: 200.0 mg/kg/injection, schedule: Q01DX005 (ip), vehicle: Klucel (hydroxypropylcellulose) (HPC)): 98 % of control

SMILES: [Cl][Sn]([Cl])([S]c1nccc2ccccc12)[S]c1nccc2ccccc12
- T/C [3]: 102 % of control
- T/C [4]: 93 % of control
- T/C [5]: 93 % of control

SMILES: Cc1ccc(C)c(OP2(=O)NC3CCCCC3N2)c1 (stereo not given)
- T/C (dose: 100.0 mg/kg/injection, schedule: Q04DX002 (ip), vehicle: Klucel (hydroxypropylcellulose) (HPC)): 91 % of control
- T/C (dose: 200.0 mg/kg/injection, schedule: Q04DX002 (ip), vehicle: Klucel (hydroxypropylcellulose) (HPC)): 89 % of control

SMILES: Brc1nc(-[n+]2ccccc2)[n-]c1Br
- T/C [6]: 101 % of control
- T/C [7]: 99 % of control
- T/C (dose: 400.0 mg/kg/injection, schedule: Q04DX003 (ip), vehicle: saline): 100 % of control

SMILES: C#CCOC(=O)C1CCCCC1
- T/C [3]: 110 % of control
- T/C [4]: 110 % of control
- T/C [5]: 112 % of control

SMILES: CC1(C)Nc2ccccc2C(c2ccccc2)=NC1=O
- T/C (dose: 60.0 mg/kg/injection, schedule: Q01DX005 (ip), vehicle: Klucel (hydroxypropylcellulose) (HPC)): 101 % of control and 102 % of control
- T/C (dose: 120.0 mg/kg/injection, schedule: Q01DX005 (ip), vehicle: Klucel (hydroxypropylcellulose) (HPC)): 105 % of control and 98 % of control
- T/C (dose: 240.0 mg/kg/injection, schedule: Q01DX005 (ip), vehicle: Klucel (hydroxypropylcellulose) (HPC)): 104 % of control and 91 % of control

SMILES: C=C(C)C(=NC(C)(C)C)N1CCCCC1
- T/C [1]: 100 % of control
- T/C [2]: 102 % of control

SMILES: CC(=O)NCCSc1nc(-c2ccccc2)c(-c2ccccc2)o1
- T/C (dose: 50.0 mg/kg/injection, schedule: Q01DX009 (ip), vehicle: Klucel (hydroxypropylcellulose) (HPC)): 95 % of control
- T/C (dose: 100.0 mg/kg/injection, schedule: Q01DX009 (ip), vehicle: Klucel (hydroxypropylcellulose) (HPC)): 104 % of control
- T/C (dose: 200.0 mg/kg/injection, schedule: Q01DX009 (ip), vehicle: Klucel (hydroxypropylcellulose) (HPC)): 101 % of control

SMILES: O=[N+]([O-])c1ccc(S(=O)(=O)c2ccc([N+](=O)[O-])cc2)cc1
- T/C (dose: 6.25 mg/kg/injection, schedule: Q04DX003 (ip), vehicle: suspension in saline): 100 % of control
- T/C (dose: 12.5 mg/kg/injection, schedule: Q04DX003 (ip), vehicle: suspension in saline): 100 % of control
- T/C (dose: 25.0 mg/kg/injection, schedule: Q04DX003 (ip), vehicle: suspension in saline): 108 % of control
- T/C (dose: 50.0 mg/kg/injection, schedule: Q04DX003 (ip), vehicle: suspension in saline): 106 % of control

SMILES: COc1ccccc1NC(=O)CC(=O)N1N=C(N(c2ccccc2)c2ccccc2)CC1c1ccccc1 (stereo not given)
- T/C [8]: 108 % of control
- T/C [9]: 107 % of control
- T/C [10]: 96 % of control

SMILES: Cc1cc(O)c2c(=O)c(=O)c2c1
- T/C [11]: 101 % of control
- T/C [12]: 103 % of control

SMILES: O=C1c2ccc(-c3ccccc3)cc2C(=O)c2cc3c(cc21)OCO3
- T/C (dose: 7.5 mg/kg/injection, schedule: Q01DX005 (ip), vehicle: saline with Tween-80): 110 % of control
- T/C (dose: 15.0 mg/kg/injection, schedule: Q01DX005 (ip), vehicle: saline with Tween-80): 100 % of control
- T/C (dose: 30.0 mg/kg/injection, schedule: Q01DX005 (ip), vehicle: saline with Tween-80): 92 % of control

SMILES: CC1(C)C(/C=C\c2ccc(O)cc2)=Nc2ccccc21
- T/C (dose: 3.12 mg/kg/injection, schedule: Q01DX009 (ip), vehicle: saline with Tween-80): 105 % of control
- T/C [13]: 100 % of control
- T/C [14]: 108 % of control

SMILES: O=C(CCCN1CCC(O)(c2cccc(C(F)(F)F)c2)CC1)c1ccc(F)cc1
- T/C (dose: 18.75 mg/kg/injection, schedule: Q04DX003 (ip), vehicle: Klucel (hydroxypropylcellulose) (HPC)): 108 % of control
- T/C (dose: 37.5 mg/kg/injection, schedule: Q04DX003 (ip), vehicle: Klucel (hydroxypropylcellulose) (HPC)): 112 % of control
- T/C (dose: 75.0 mg/kg/injection, schedule: Q04DX003 (ip), vehicle: Klucel (hydroxypropylcellulose) (HPC)): 88 % of control

SMILES: CNCC1CCCCC1NC (stereo not given)
- T/C (dose: 50.0 mg/kg/injection, schedule: Q04DX003 (ip), vehicle: saline): 99 % of control
- T/C [6]: 97 % of control
- T/C [7]: 96 % of control

SMILES: O=C(/N=C1\N=Nc2nc(C3(c4nc5n(c4O)/C(=N/C(=O)Nc4ccc(Cl)cc4)N=N5)CCCC3=O)c(O)n21)Nc1ccc(Cl)cc1 (stereo not given)
- T/C [8]: 91 % of control
- T/C [9]: 86 % of control

SMILES: CC(=O)NS(=O)(=O)c1ccc(C)cc1
- T/C (dose: 100.0 mg/kg/injection, schedule: Q04DX003 (ip), vehicle: Klucel (hydroxypropylcellulose) (HPC)): 106 % of control
- T/C (dose: 200.0 mg/kg/injection, schedule: Q04DX003 (ip), vehicle: Klucel (hydroxypropylcellulose) (HPC)): 107 % of control
- T/C (dose: 400.0 mg/kg/injection, schedule: Q04DX003 (ip), vehicle: Klucel (hydroxypropylcellulose) (HPC)): 100 % of control

SMILES: CC(C)C(NC(=O)C(CCCCNC(=O)OCc1ccccc1)NC(=O)OCc1ccccc1)C(=O)OCc1ccccc1 (stereo not given) (Cbz-Lys(Cbz)-Val-OBn; configuration not given here)
- T/C [11]: 89 % of control
- T/C [12]: 91 % of control
- T/C [15]: 103 % of control

SMILES: CC1C(c2ccccc2)=NN(C)c2ccccc21 (stereo not given)
- T/C [8]: 97 % of control
- T/C [9]: 102 % of control
- T/C [10]: 90 % of control

SMILES: O=C(Cc1ccc([N+](=O)[O-])cc1)ON1C(=O)CCC1=O
- T/C [8]: 117 % of control
- T/C [9]: 114 % of control

SMILES: CC(C)(C)c1ccc(OCC(COc2ccc(C(C)(C)C)cc2)(COc2ccc(C(C)(C)C)cc2)COc2ccc(C(C)(C)C)cc2)cc1
- T/C (dose: 7.5 mg/kg/injection, schedule: Q01DX009 (ip), vehicle: saline with Tween-80): 98 % of control
- T/C (dose: 15.0 mg/kg/injection, schedule: Q01DX009 (ip), vehicle: saline with Tween-80): 95 % of control
- T/C (dose: 30.0 mg/kg/injection, schedule: Q01DX009 (ip), vehicle: saline with Tween-80): 93 % of control

SMILES: Cc1ccc(C=Nc2ccc(Cl)c(Cl)c2)cc1
- T/C [8]: 100 % of control
- T/C [9]: 108 % of control
- T/C [10]: 89 % of control

SMILES: O=NN(CCF)C(=O)NCCF
- T/C (dose: 0.11 mg/kg/injection, schedule: Q01DX009 (ip), vehicle: saline): 109 % of control
- T/C (dose: 0.16 mg/kg/injection, schedule: Q01DX009 (ip), vehicle: saline): 109 % of control
- T/C (dose: 0.25 mg/kg/injection, schedule: Q01DX009 (ip), vehicle: saline): 122 % of control
- T/C (dose: 2.5 mg/kg/injection, schedule: Q01DX009 (ip), vehicle: saline): 236 % of control

SMILES: C/C=C(\NN=NC)c1ccccc1
- T/C (dose: 200.0 mg/kg/injection, schedule: Q04DX002 (ip), vehicle: saline with Tween-80): 166 % of control

SMILES: CSc1ccc2c(c1)C(N1CCN(C)CC1)Cc1ccccc1S2 (stereo not given)
- T/C [13]: 106 % of control and 107 % of control and 114 % of control
- T/C [14]: 103 % of control and 107 % of control and 95 % of control
- T/C (dose: 12.5 mg/kg/injection, schedule: Q01DX009 (ip), vehicle: saline): 117 % of control
- T/C (dose: 25.0 mg/kg/injection, schedule: Q01DX009 (ip), vehicle: saline with Tween-80): 86 % of control and 95 % of control
- T/C (dose: 25.0 mg/kg/injection, schedule: Q01DX009 (ip), vehicle: saline): 118 % of control

SMILES: Nc1c(C(=O)NCc2ccccc2)c2nc3c(C(=O)NCc4ccccc4)ccc(Br)c3oc-2c(Br)c1=O
- T/C [11]: 98 % of control
- T/C [12]: 86 % of control
- T/C [15]: 89 % of control

SMILES: Cc1cc2c(cc1C)NC1=C(N2)OC(c2cccc(O)c2)C1=O (stereo not given)
- T/C (dose: 7.5 mg/kg/injection, schedule: Q01DX005 (ip), vehicle: Klucel (hydroxypropylcellulose) (HPC)): 104 % of control
- T/C (dose: 15.0 mg/kg/injection, schedule: Q01DX005 (ip), vehicle: Klucel (hydroxypropylcellulose) (HPC)): 101 % of control
- T/C (dose: 30.0 mg/kg/injection, schedule: Q01DX005 (ip), vehicle: Klucel (hydroxypropylcellulose) (HPC)): 110 % of control

SMILES: Clc1ccc(CNc2ncnc3[nH]ncc23)c(Cl)c1
- T/C (dose: 100.0 mg/kg/injection, schedule: Q04DX003 (ip), vehicle: saline with Tween-80): 100 % of control
- T/C (dose: 200.0 mg/kg/injection, schedule: Q04DX003 (ip), vehicle: saline with Tween-80): 100 % of control

SMILES: Cc1cc(N(CCO)CCO)c2ccc3ccccc3c2n1
- T/C [3]: 101 % of control
- T/C [4]: 108 % of control
- T/C [5]: 97 % of control
